Source: ChEMBL document CHEMBL1201862, “PubChem BioAssay data set” (2004)
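In this assay, cells in 96-well plates receive the compound at five concentrations for 48 hours. Endpoints are linearly interpolated between the surrounding concentrations. GI50 is the concentration that inhibits growth by half.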 Activity calls are given as the source filed them. Rule as the data show it: active = GI50 up to about 1.1 µM and inactive = higher.

What was measured:
Test in all cases: inhibition of tumour cell growth, NCI panel, 48 h
[1] = tested on: DMS-273
[2] = tested on: M19-MEL
[3] = tested on: XF498
[4] = tested on: DMS-114
[5] = tested on: A498
[6] = tested on: BT-549
[7] = tested on: Hs-578T

| SMILES | GI50 [1] | GI50 [2] | GI50 [3] | GI50 [4] | GI50 [5] | GI50 [6] | GI50 [7] |
| --- | --- | --- | --- | --- | --- | --- | --- |
| O=C1C=C(C2OC(CO)C(O)C2O)C(=O)N1 (configuration not stated) | > 100 µM (inactive) | > 100 µM (inactive) | < 0.01 µM (active) | 54.8 µM (inactive) | > 100 µM (inactive) |  |  |
| C/C(=N\Oc1cc(Cl)ncn1)c1ccccn1 |  |  |  |  |  | 85.3 µM (inactive) | 32.8 µM (inactive) |
